The values that follow come from ChEMBL document CHEMBL1201862, “PubChem BioAssay data set” (2004).

One may read the IC50 as the concentration needed to halve the response being measured. What is called AC50 is the concentration giving half of the maximal activity seen. A word on the EC50: it is the concentration needed to bring the measured effect to its halfway point.

Assay [1] addresses T1, Ubiquitin-conjugating enzyme E2 N (Homo sapiens, UniProt P61088).
T1 sequence (P61088 whole entry): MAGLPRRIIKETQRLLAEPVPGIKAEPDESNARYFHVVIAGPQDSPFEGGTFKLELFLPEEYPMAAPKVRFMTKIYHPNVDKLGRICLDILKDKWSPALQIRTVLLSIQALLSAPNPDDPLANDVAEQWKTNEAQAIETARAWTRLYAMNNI
Format: functional.

The target of another assay is T2, Bcl-2-related protein A1 (Mus musculus, UniProt Q07440).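 Also: confirmatory dose–response counterscreen on Bfl-1, used to check hits from a UBC13 polyubiquitin inhibitor campaign.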
T2 sequence (Q07440 whole entry): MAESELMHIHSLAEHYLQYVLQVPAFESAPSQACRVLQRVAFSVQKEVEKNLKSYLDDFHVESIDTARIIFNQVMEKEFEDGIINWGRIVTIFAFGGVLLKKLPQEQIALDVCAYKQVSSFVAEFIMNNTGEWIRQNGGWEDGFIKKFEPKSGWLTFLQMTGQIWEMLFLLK
In kind it is functional.

Assay [2] deals with T1, Ubiquitin-conjugating enzyme E2 N. In kind it is functional. The source holds these as a separate data set.
Assay [3] is described as follows: cells. To be noted: A549.
The nature of assay [4]: cells. The conditions noted are these: HEK293.
The nature of assay [5]: viability loss in HepG2 liver cells – cell-based, ATP luminescence, cherry-pick, set 6, cytotoxicity control, dose response (AID 1053125). Format: functional.
Assay [6] has as its target T3, Cannabinoid receptor 2 (Homo sapiens, UniProt P34972). Put plainly: SAR analysis of antagonists of the Cannabinoid Receptor 2 using an Image-Based Assay. [Related pubchem assays (depositor defined):AID2013, AID2026]. In kind it is functional.
Assay [7] concerns the target T4, G-protein coupled receptor 55 (Homo sapiens, UniProt Q9Y2T6). The experiment in a line: inhibition of LPI-stimulated GPR55 beta-arrestin translocation – imaging, U2OS, beta-arrestin-GFP, LPI agonist, primary screen (AID 2013).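 Also: antagonist potency measured as reduced agonist-driven arrestin aggregation.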 In kind it is functional.
Assay [8] addresses T5, Cannabinoid receptor 1 (Homo sapiens, UniProt P21554). Put plainly: SAR analysis of agonists of the Cannabinoid Receptor 1 using an Image-Based Assay - Set 2. [Related pubchem assays (depositor defined):AID2013, AID2026]. In kind it is functional.
Assay [9] has as its target T5, Cannabinoid receptor 1. The experiment in a line: SAR analysis of antagonists of the Cannabinoid Receptor 1 using an Image-Based Assay - Set 2. [Related pubchem assays (depositor defined):AID2013, AID2026]. Format: functional.
The target in assay [10] is T4, G-protein coupled receptor 55. Put plainly: blockade of LPI-induced GPR55 arrestin translocation – imaging, U2OS, beta-arrestin-GFP, LPI agonist, set 2, SAR follow-up (AID 2820). In kind it is functional.
The target in assay [11] is T3, Cannabinoid receptor 2. Put plainly: SAR analysis of agonists of the Cannabinoid Receptor 2 using an Image-Based Assay. [Related pubchem assays (depositor defined):AID2013, AID2026]. In kind it is functional.
Assay [12] addresses T6, G-protein coupled receptor 35 (Homo sapiens, UniProt Q9HC97). The experiment in a line: SAR analysis of Antagonists of the GPR35 Receptor using an Image-Based Assay - Set 3. [Related pubchem assays (depositor defined):AID2013, AID2026]. Format: functional.
Assay [13] addresses T6, G-protein coupled receptor 35. The experiment in a line: SAR analysis of Agonists of the GPR35 Receptor using an Image-Based Assay - Set 2. [Related pubchem assays (depositor defined):AID2013, AID2026]. Format: functional.
In assay [14] the target is T5, Cannabinoid receptor 1. Put plainly: SAR analysis of agonists of the Cannabinoid Receptor 1 using an Image-Based Assay - Set 4. [Related pubchem assays (depositor defined):AID2013, AID2026]. In kind it is functional.
Assay [15] has as its target T3, Cannabinoid receptor 2. Put plainly: SAR analysis of agonists of the Cannabinoid Receptor 2 using an Image-Based Assay - Set 3. [Related pubchem assays (depositor defined):AID2013, AID2026]. In kind it is functional.
The target of assay [16] is T6, G-protein coupled receptor 35. The experiment in a line: SAR analysis of Antagonists of the GPR35 Receptor using an Image-Based Assay - Set 6. [Related pubchem assays (depositor defined):AID2013, AID2026]. Format: functional.
Assay [17] has as its target T3, Cannabinoid receptor 2. The experiment in a line: SAR analysis of antagonists of the Cannabinoid Receptor 2 using an Image-Based Assay - Set 3. [Related pubchem assays (depositor defined):AID2013, AID2026]. In kind it is functional.
In assay [18] the target is T5, Cannabinoid receptor 1. The experiment in a line: SAR analysis of antagonists of the Cannabinoid Receptor 1 using an Image-Based Assay - Set 4. [Related pubchem assays (depositor defined):AID2013, AID2026]. In kind it is functional.
Assay [19] concerns the target T6, G-protein coupled receptor 35. The experiment in a line: SAR analysis of Agonists of the GPR35 Receptor using an Image-Based Assay - Set 4. [Related pubchem assays (depositor defined):AID2013, AID2026]. Format: functional.
Assay [20] addresses T4, G-protein coupled receptor 55. The experiment in a line: SAR Analysis of Selective Antagonists of GPR55 using an Image-Based Assay - Set 4. [Related pubchem assays (depositor defined):AID2013, AID2026]. In kind it is functional.
Assay [21] deals with T7, Type-1 angiotensin II receptor (Homo sapiens, UniProt P30556).
T7 sequence (P30556 whole entry): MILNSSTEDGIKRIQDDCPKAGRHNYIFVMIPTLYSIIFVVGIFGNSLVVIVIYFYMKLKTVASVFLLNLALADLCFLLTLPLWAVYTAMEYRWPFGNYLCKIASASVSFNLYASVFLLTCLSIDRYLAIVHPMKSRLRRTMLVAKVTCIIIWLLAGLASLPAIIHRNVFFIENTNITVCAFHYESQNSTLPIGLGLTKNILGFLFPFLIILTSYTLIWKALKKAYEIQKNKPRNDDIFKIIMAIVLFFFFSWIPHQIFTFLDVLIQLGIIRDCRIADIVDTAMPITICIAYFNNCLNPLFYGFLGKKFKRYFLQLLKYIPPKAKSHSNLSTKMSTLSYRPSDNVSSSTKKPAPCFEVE
The experiment in a line: agonist activity at AGTR1 – cell-based, uHTS hits, selectivity assay for APJ receptor agonist project, dose response (AID 488865).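 Also: beta-arrestin recruitment to AT1 measured by enzyme fragment complementation luminescence.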 In kind it is functional.

Assay [22] deals with T8, DNA repair and recombination protein RAD54-like (Homo sapiens, UniProt Q92698).
T8 sequence (Q92698 whole entry): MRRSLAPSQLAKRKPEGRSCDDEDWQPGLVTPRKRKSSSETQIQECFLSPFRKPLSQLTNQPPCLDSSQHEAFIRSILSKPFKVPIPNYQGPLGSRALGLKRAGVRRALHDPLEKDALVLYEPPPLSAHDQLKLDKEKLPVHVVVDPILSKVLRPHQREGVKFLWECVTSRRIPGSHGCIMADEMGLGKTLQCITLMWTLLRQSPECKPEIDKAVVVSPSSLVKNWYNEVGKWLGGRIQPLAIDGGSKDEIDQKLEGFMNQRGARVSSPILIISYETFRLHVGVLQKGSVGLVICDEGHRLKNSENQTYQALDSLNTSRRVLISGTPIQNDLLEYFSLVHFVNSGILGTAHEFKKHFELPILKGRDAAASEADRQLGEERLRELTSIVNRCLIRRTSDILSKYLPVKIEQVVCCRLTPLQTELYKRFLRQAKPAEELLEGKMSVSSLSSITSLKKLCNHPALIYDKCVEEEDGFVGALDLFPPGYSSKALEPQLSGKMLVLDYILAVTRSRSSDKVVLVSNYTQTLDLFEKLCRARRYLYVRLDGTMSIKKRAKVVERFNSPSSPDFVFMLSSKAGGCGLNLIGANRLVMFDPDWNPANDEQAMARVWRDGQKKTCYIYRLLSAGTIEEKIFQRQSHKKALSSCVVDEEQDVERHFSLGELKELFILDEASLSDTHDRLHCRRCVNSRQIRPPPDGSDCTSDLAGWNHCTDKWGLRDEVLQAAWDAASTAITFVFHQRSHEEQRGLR
The experiment in a line: RAD54 Holliday junction migration blockers – biochemical, fluorescence, cherry-picked samples, dose series, confirmation (AID 651657). In kind it is functional.

The next assay concerns the target Kallikrein-7 (Homo sapiens, UniProt P49862). Put plainly: Fluorescence Intensity-based biochemical primary high throughput dose response assay to identify activators of kallikrein-7 (K7) zymogen.
The subject of a further assay is Vibrio harveyi. The experiment in a line: LuxS/LuxPQ-dependent luminescence inhibition, V. harveyi – dry powder, set 2, dose response (AID 493072). Format: functional, organism-based.

Active and inactive are the calls of the source.

T5 sequence (P21554 whole entry): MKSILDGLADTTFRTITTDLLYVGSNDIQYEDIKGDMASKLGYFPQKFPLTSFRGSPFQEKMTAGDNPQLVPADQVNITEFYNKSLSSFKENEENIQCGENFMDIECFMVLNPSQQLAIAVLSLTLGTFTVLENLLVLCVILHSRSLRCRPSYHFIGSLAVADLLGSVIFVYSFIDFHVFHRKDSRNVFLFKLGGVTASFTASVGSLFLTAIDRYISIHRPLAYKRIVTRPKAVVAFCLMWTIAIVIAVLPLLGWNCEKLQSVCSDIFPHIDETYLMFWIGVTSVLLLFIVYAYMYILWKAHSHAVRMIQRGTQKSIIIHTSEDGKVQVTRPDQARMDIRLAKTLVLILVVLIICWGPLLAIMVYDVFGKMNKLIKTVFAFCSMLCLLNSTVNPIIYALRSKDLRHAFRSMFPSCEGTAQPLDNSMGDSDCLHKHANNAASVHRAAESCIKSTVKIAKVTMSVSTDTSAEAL
T3 sequence (P34972 whole entry): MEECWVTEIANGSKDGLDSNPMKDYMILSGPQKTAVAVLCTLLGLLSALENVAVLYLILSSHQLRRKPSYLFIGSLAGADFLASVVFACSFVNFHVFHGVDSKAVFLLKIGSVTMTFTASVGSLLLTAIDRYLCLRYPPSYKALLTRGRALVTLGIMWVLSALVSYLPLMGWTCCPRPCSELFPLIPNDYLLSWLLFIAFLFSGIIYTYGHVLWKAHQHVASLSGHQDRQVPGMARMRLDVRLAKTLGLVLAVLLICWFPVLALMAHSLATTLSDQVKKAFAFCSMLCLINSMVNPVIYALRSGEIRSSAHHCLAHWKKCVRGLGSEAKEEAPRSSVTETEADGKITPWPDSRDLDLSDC
T4 sequence (Q9Y2T6 whole entry): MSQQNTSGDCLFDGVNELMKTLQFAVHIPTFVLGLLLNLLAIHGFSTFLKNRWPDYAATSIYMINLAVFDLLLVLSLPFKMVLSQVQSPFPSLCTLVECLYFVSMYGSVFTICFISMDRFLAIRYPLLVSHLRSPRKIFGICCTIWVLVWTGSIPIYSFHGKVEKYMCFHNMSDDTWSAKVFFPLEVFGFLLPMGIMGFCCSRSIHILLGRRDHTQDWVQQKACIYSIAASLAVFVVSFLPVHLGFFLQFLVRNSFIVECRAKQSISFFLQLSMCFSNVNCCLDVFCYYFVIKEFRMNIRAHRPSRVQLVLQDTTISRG
T6 sequence (Q9HC97 whole entry): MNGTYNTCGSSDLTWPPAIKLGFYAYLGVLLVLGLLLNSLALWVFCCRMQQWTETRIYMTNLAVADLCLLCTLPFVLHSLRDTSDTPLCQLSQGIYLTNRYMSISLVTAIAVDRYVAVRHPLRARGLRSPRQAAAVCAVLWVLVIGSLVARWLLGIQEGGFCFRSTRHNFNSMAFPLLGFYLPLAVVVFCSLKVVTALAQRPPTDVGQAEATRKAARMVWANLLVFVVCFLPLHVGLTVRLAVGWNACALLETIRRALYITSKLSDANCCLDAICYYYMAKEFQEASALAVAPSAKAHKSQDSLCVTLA
Chain of Kallikrein-7 (P49862 whole entry): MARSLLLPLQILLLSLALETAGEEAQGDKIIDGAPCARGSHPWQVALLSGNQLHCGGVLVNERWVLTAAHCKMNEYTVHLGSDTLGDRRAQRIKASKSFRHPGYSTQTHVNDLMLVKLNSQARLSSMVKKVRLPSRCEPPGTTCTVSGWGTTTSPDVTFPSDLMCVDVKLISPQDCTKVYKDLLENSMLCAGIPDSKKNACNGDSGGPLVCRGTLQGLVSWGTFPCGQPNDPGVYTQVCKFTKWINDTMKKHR

As for `CC(=O)NC(=S)NNC(=O)c1ccc(Br)cc1`, the IC50 in [1] was 17 µM (active); at Bcl-2-related protein A1, > 20 µM (inactive); in [2], 14.9 µM (active). For the same molecule, the AC50 is 46.3 µM (active) in “cells [3]”, > 52 µM (inactive) in “cells [4]” and > 52 µM (inactive) in assay [5].
Regarding `COc1ccc(-c2c(-c3ccc(O)cc3O)n[nH]c2C(F)(F)F)cc1`, the IC50 on Cannabinoid receptor 2 [6] is > 32 µM (inactive); in assay [7] it was 1.8 µM (active); on Cannabinoid receptor 1 [9] it was 8.82 µM (active); in [10], 1.06 µM (active); in [12] it was > 32 µM (inactive). In addition, the EC50 is > 32 µM (inactive) at Cannabinoid receptor 1 [8], 30.2 µM (inactive) at Cannabinoid receptor 2 [11] and > 32 µM (inactive) in assay [13].
Turning to `O=C(Nc1ccc(S(=O)(=O)Nc2nccs2)cc1)c1cc(-c2cccs2)nc2ccccc12`, the EC50 (on Cannabinoid receptor 1 [14]; at Cannabinoid receptor 2 [15]; in [19]) was > 32 µM (inactive) in each case. Moreover, the IC50 in [16] was > 32 µM (inactive); on Cannabinoid receptor 2 [17] it was > 32 µM (inactive); on Cannabinoid receptor 1 [18] it was 4.09 µM (active); in assay [20], 29 µM (inactive).
In the case of `COc1cccc2sc3cc(NCC[C@@H]4CCCN4C)ccc3c(=O)c12`, the EC50 in assay [21] was > 100 µM (inactive); at Kallikrein-7, > 69.5 µM (inactive). In addition, the AC50 in assay [22] is 9.49 µM (active).
With `Cc1cccc(NC(=O)c2ccc(Oc3ccccc3)cc2)n1`, the AC50 in the assay on Vibrio harveyi is 15.2 µM (active).
